Test results: patent US9993449B2, “(S)-3-amino-4-(difluoromethylenyl)cyclopent-1-ene-1-carboxylic acid, and related compounds as GABA aminotransferase inactivators for the treatment of epilepsy, addiction and hepatocellular carcinoma” (NORTHWESTERN UNIVERSITY, priority 2015, dated 2018)
Counter-ions that a name gives are not always drawn.

How the values were obtained:
[1] = biological target: aspartate aminotransferase (Asp-AT); experiment: Inhibition of aspartate aminotransferase; type: biochemical; conditions: reversible inhibition
Description: Inhibition of Aspartate Aminotransferase by 1. Microtiter plate wells were loaded with 90 μL of an assay mixture containing 100 mM potassium phosphate at pH 7.4, 5.55 mM α-ketoglutarate, 1.11 mM NADH, 5.55 mM L-aspartate, 11.1 units of malic dehydrogenase, and various concentrations of 1. After incubation of the mixture at room temperature for a few min, 10 μL of Asp-AT (3.0 units/mL in 100 mM potassium phosphate at pH 7.4) was added. The plate was shaken at room temperature for 1 min, and the absorbance was measured at 340 nm every 6 s for 90 min. All assays were performed in duplicate (FIG. 4).

[2] = biological target: alanine aminotransferase (Ala-AT); experiment: Inhibition of alanine aminotransferase; type: biochemical; conditions: reversible inhibition
Text: Inhibition of Alanine Aminotransferase by 1. The assay was identical to that with aspartate aminotransferase except L-alanine was used as the substrate and lactate dehydrogenase was the enzyme (FIG. 5).

hERG channel = biological target: T1, hERG channel (Homo sapiens, UniProt Q12809); experiment: Inhibition of the hERG channel (automated whole-cell patch clamp, hERG CHO-K1 cell line); type: cell-based; conditions: 0.1 μM, 1 μM, and 10 μM; 5 min at room temperature
T1 construct: host or cells: CHO-K1
Description: Inhibition of the hERG Channel. The experiments were performed by Eurofins Panlabs (Redmond, Wash. 98052, USA). hERG CHO-K1 cell line was used. The test concentrations were 0.1 μM, 1 μM, and 10 μM. The incubation time was 5 min at room temperature, cumulatively. The detection method used an automated whole-cell patch clamp. The experiments were duplicated, and the % inhibition of the tail current was averaged (FIG. 7).

CYP1A = biological target: T2, CYP1A (Homo sapiens, UniProt P05177); experiment: CYP1A inhibition (HLM, phenacetin substrate); type: in vitro ADME; conditions: 10 μM, 10 min at 37° C.
T2 construct: tissue Eurofins Panlabs; host or cells: human liver microsomes
T2 sequence (P05177 1-516): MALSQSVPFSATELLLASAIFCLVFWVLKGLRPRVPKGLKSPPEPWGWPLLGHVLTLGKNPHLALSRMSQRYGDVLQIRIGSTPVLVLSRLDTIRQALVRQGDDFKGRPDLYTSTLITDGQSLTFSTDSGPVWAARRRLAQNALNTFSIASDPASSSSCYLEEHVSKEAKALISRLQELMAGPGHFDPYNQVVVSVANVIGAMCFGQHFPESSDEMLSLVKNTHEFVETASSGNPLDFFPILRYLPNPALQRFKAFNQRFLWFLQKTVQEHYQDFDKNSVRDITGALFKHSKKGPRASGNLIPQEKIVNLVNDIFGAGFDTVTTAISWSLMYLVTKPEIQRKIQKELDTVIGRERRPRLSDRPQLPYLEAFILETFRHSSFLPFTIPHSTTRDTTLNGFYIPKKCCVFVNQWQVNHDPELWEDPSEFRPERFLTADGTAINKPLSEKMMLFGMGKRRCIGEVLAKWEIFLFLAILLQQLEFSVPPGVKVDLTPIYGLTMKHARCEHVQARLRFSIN
Description: (§1) Inhibition of Microsomal Cytochromes P450. The experiments were performed by Eurofins Panlabs (Redmond, Wash. 98052, USA). CYP1A inhibition (HLM, phenacetin substrate), CYP2B6 inhibition (HLM, bupropion substrate), CYP2C8 inhibition (HLM, paclitaxel substrate), CYP2C9 inhibition (HLM, diclofenac substrate), CYP2C19 inhibition (HLM, omeprazole substrate), CYP2D6 inhibition (HLM, dextromethorphan substrate), and CYP3A inhibition (HLM, midazolam and testosterone substrates) were tested. The test concentration was 10 μM. The incubation time was 10 min at 37° C. The detection method was by HPLC-MS/MS. The experiments were duplicated, and the % inhibition of the control values was averaged (FIG. 8).

CYP2B6 = biological target: T3, CYP2B6 (Homo sapiens, UniProt P20813); experiment: CYP2B6 inhibition (HLM, bupropion substrate); type: in vitro ADME; conditions: 10 μM, 10 min at 37° C.
T3 construct: tissue Eurofins Panlabs; host or cells: human liver microsomes
T3 sequence (P20813 1-491): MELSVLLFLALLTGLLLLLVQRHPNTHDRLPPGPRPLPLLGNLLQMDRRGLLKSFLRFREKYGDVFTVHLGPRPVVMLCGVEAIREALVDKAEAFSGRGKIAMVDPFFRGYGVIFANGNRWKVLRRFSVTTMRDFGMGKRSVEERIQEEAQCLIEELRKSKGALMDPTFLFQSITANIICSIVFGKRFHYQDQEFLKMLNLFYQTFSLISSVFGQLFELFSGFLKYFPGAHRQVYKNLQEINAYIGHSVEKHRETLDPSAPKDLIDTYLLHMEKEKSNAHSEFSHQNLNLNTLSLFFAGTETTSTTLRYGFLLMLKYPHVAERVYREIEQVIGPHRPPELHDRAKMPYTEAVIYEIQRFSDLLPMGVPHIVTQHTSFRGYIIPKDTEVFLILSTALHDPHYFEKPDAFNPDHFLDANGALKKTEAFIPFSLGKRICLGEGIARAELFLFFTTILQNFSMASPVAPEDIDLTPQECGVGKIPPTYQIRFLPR
Description: as §1

CYP2C8 = biological target: T4, CYP2C8 (Homo sapiens, UniProt P10632); experiment: CYP2C8 inhibition (HLM, paclitaxel substrate); type: in vitro ADME; conditions: 10 μM, 10 min at 37° C.
T4 construct: tissue Eurofins Panlabs; host or cells: human liver microsomes
T4 sequence (P10632 1-490): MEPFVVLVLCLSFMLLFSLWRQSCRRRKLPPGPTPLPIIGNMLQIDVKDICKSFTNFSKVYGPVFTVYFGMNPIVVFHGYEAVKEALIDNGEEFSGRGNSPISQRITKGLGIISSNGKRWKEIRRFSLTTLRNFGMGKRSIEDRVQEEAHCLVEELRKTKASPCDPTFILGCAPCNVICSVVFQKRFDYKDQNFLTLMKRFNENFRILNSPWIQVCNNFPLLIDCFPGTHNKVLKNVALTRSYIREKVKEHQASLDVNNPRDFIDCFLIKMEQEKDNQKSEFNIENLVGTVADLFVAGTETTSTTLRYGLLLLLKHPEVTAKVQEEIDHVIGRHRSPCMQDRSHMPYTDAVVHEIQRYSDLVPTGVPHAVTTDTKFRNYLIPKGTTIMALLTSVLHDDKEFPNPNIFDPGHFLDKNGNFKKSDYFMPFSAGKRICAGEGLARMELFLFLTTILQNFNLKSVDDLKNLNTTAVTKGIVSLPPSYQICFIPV
Description: as §1

CYP2C9 = biological target: T5, CYP2C9 (Homo sapiens, UniProt P11712); experiment: CYP2C9 inhibition (HLM, diclofenac substrate); type: in vitro ADME; conditions: 10 μM, 10 min at 37° C.
T5 construct: tissue Eurofins Panlabs; host or cells: human liver microsomes
Description: as §1

CYP2C19 = biological target: T6, CYP2C19 (Homo sapiens, UniProt P33261); experiment: CYP2C19 inhibition (HLM, omeprazole substrate); type: in vitro ADME; conditions: 10 μM, 10 min at 37° C.
T6 construct: tissue Eurofins Panlabs; host or cells: human liver microsomes
Description: as §1

CYP2D6 = biological target: T7, CYP2D6 (Homo sapiens, UniProt P10635); experiment: CYP2D6 inhibition (HLM, dextromethorphan substrate); type: in vitro ADME; conditions: 10 μM, 10 min at 37° C.
T7 construct: tissue Eurofins Panlabs; host or cells: human liver microsomes
Description: as §1

CYP3A = CYP3A inhibition (HLM, midazolam and testosterone substrates); type: in vitro ADME, human; conditions: 10 μM, 10 min at 37° C.
Description: as §1

T1 sequence (Q12809 whole entry): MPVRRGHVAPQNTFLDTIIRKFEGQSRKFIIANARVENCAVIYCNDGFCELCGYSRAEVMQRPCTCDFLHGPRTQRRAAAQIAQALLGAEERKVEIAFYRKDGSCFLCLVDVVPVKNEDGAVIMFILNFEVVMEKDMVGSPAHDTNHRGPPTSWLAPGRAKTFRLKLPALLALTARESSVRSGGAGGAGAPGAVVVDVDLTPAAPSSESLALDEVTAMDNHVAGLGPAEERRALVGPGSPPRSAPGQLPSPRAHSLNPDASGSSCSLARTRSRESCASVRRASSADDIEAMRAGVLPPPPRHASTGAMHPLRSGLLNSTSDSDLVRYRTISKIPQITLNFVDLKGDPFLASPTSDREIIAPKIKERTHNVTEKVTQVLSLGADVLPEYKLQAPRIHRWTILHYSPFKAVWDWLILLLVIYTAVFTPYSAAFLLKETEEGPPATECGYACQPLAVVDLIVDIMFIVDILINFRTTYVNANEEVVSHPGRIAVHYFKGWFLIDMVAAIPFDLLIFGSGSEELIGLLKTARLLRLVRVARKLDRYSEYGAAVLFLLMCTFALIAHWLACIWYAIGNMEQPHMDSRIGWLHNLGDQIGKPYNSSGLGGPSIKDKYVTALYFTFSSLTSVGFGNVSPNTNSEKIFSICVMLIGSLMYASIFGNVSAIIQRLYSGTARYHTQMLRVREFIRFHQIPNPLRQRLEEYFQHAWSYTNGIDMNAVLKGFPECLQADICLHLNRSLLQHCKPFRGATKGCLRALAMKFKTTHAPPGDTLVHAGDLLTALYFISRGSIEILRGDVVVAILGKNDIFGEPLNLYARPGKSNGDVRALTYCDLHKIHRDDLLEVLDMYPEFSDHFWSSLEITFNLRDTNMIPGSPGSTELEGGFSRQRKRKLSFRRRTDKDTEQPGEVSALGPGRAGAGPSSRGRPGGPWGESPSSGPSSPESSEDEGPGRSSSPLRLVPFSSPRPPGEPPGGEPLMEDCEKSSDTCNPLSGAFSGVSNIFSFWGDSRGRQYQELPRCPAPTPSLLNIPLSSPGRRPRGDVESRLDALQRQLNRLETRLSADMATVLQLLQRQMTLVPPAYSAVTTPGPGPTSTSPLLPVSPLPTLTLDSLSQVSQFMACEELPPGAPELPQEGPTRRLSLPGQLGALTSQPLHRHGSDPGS
T6 sequence (P33261 whole entry): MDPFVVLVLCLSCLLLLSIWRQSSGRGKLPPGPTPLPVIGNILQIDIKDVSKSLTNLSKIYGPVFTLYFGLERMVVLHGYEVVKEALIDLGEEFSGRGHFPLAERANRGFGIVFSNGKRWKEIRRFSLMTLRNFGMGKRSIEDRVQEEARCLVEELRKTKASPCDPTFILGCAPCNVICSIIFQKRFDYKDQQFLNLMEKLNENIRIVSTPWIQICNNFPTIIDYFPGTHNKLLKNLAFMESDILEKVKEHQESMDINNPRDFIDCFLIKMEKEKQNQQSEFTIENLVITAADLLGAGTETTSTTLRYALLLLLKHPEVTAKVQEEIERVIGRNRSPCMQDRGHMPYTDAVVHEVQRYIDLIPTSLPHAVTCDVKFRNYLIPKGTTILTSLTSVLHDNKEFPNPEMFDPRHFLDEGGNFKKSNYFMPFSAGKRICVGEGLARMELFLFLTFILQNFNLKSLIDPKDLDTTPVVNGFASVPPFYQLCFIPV
T7 sequence (P10635 whole entry): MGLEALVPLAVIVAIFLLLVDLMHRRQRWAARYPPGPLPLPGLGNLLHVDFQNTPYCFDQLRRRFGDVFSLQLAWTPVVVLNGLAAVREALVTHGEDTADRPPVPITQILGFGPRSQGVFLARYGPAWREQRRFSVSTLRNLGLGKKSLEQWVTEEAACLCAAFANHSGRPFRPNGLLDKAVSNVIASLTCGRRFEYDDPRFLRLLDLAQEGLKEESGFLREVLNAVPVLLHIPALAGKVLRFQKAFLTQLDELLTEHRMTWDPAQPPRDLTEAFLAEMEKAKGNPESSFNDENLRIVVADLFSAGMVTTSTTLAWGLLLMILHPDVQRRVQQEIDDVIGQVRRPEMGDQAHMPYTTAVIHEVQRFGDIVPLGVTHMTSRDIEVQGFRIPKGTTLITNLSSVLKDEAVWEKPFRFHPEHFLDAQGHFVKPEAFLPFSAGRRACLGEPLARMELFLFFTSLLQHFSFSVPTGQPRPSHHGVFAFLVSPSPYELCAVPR
T5 sequence (P11712 whole entry): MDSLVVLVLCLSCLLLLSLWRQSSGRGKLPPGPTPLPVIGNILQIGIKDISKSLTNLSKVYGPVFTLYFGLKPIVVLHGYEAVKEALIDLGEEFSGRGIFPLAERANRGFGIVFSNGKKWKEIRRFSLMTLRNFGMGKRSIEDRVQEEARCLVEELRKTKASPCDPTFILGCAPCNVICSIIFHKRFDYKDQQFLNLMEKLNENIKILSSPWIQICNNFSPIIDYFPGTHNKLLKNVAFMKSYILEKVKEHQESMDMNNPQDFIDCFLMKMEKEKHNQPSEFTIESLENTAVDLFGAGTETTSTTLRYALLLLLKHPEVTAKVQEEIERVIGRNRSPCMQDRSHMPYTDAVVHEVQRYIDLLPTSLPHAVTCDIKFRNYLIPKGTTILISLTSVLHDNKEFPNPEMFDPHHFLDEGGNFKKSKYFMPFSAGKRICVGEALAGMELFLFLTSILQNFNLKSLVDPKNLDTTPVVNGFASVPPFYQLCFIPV

N[C@H]1C=C(C(=O)O)CC1=C(F)F [Compound 1, (S)-3-Amino-4-(difluoromethylenyl)cyclopent-1-ene-1-carboxylic acid Hydrochloride]
does not inhibit: inhibition of the activity of the hERG channel (hERG channel)
> 4 mM: IC50 [1] | IC50 [2]
does not inhibit or induce: inhibition or induction of CYP 1A (CYP1A) | inhibition or induction of CYP 2B6 (CYP2B6) | inhibition or induction of CYP 2C8 (CYP2C8) | inhibition or induction of CYP 2C9 (CYP2C9) | inhibition or induction of CYP 2C19 (CYP2C19) | inhibition or induction of CYP 2D6 (CYP2D6) | inhibition or induction of CYP 3A (CYP3A)
